Test results from paper PMC6629894, “Ruthenium Complexes Containing Heterocyclic Thioamidates Trigger Caspase-Mediated Apoptosis Through MAPK Signaling in Human Hepatocellular Carcinoma Cells” (Frontiers in Oncology, 2019).
Like-named read-outs stand apart in the source and are kept apart here.

Key:
HepG2 cells [1] = experiment: DNA content: internucleosomal DNA fragmentation and cell cycle distribution by flow cytometry; assay type: cell-based, human; conditions: 24 and 48 h
Procedure: (§1) For all subsequent in vitro experiments, 2 mL of a suspension of HepG2 cells were seeded (7 × 10^4 cells/mL) and incubated in a 24-well plate overnight to allow the cells to adhere to the plate surface.
In this assay, cells were harvested in a permeabilization solution containing 0.1% Triton X-100, 2 μg/mL propidium iodide, 0.1% sodium citrate and 100 μg/mL RNAse (all from Sigma-Aldrich Co.) and incubated in the dark for 15 min at room temperature.
(§2) For all flow cytometry analyses, at least 10^4 events were recorded per sample using a BD LSRFortessa cytometer, BD FACSDiva Software (BD Biosciences) and FlowJo Software 10 (FlowJo Lcc; Ashland, OR, USA). Cellular debris was omitted from the analysis.

[2] = test system: multicellular spheroids formed from HepG2 cells; experiment: 3D multicellular spheroid culture, Alamar blue, 72 h; assay type: cell-based, human; conditions: read-out: IC50 and 95% CI, 3D HepG2 spheroids
Procedure: HepG2 cells were cultivated as 3D multicellular spheroids in a 96-well plate with a cell-repellent surface. Briefly, 100 μL of a suspension of cells (5 × 10^5 cells/mL) was seeded into a 96-well plate with a cell-repellent surface (Greiner Bio-One, Kremsmünster, Austria) and cultured in RPMI 1640 medium with 10% fetal bovine serum, 2 mM glutamine plus 3% Matrigel (BD Biosciences, San Jose, CA, EUA) and 50 μg/mL gentamycin at 37°C with 5% CO2. Spheroids with stable structures formed after 3 days. Then, the complexes were dissolved in 0.5% DMSO at eight different concentrations from 0.19 to 25 μg/mL, were added to each well and incubated for 72 h. […] At the end of the experiment, morphological changes were examined by light microscopy (Olympus BX41, Tokyo, Japan) using Image-Pro software (Media Cybernetics, Inc. Silver Spring, USA), and cytotoxicity was quantified with the Alamar blue method as described above.

HepG2 cells [3] = experiment: Cell morphology: May-Grunwald-Giemsa staining and light scattering; assay type: cell-based, human; conditions: 24 and 48 h
Procedure: as §1
To evaluate alterations in the morphology, cells were cultured on a coverslip and stained with May-Grunwald-Giemsa. Morphological changes were examined by light microscopy (Olympus BX41) using Image-Pro software (Media Cybernetics).

[4] = test system: SCC-4 (human oral squamous cell carcinoma); experiment: Alamar blue cytotoxicity assay, 72 h; assay type: cell-based
Source text: (§3) The cell lines HepG2 (human hepatocellular carcinoma), HL-60 (human promyelocytic leukemia), K-562 (human chronic myelogenous leukemia), B16-F10 (mouse melanoma), MCF-7 (human breast carcinoma), HCT116 (human colon carcinoma), HSC-3 (human oral squamous cell carcinoma), SCC-4 (human oral squamous cell carcinoma), MRC-5 (human lung fibroblast), WT SV40 MEF (wild-type immortalized mouse embryonic fibroblast), and BAD KO SV40 MEF (BAD gene knockout immortalized mouse embryonic fibroblasts) were obtained from the American Type Culture Collection (ATCC, Manassas, VA, USA). Cells were cultured in RPMI 1640 medium (Gibco-BRL, Gaithersburg, MD, USA) with 10% fetal bovine serum (Life, Carlsbad, CA, USA), 2 mM L-glutamine (Vetec Química Fina, Duque de Caxias, RJ, Brazil) and 50 μg/mL gentamycin (Life). For all experiments, adherent cells were collected by treatment with 0.25% trypsin-EDTA solution (Gibco-BRL). All cell lines were cultured in flasks at 37°C in 5% CO2 and were subcultured every 3–4 days to maintain exponential growth. All cell lines were tested for mycoplasma using a mycoplasma staining kit (Sigma-Aldrich Co.) to validate that the cells that were used were free from contamination.
(§4) Cytotoxicity was measured colorimetrically using an Alamar blue method that was performed as previously described ([20], [21]). Cells were seeded in 96-well plates for all experiments (7 × 10^4 cells/mL for adherent cells or 3 × 10^5 cells/mL for suspension cells in 100 μL of medium) and incubated overnight at 37°C with 5% CO2 to allow for adherence. The complexes were dissolved in 0.5% dimethyl sulfoxide (DMSO, Vetec Química Fina) at eight different concentrations from 0.19 to 25 μg/mL and were added to each well and incubated for 72 h. The negative control was treated with the vehicle (0.5% DMSO) that was used to solubilize and dilute the complexes. […] Four (for cell lines) or 24 h (for PBMCs) before the end of incubation, 20 μL of a stock solution (0.312 mg/mL) of resazurin (Sigma-Aldrich Co.) was added to each well. Absorbance was measured at 570 and 600 nm using a SpectraMax 190 Microplate Reader (Molecular Devices, Sunnyvale, CA, USA).

[5] = test system: HCT116 (human colon carcinoma); experiment: Alamar blue cytotoxicity assay, 72 h; assay type: cell-based
Source text: as §3, §4

[6] = test system: HSC-3 (human oral squamous cell carcinoma); experiment: Alamar blue cytotoxicity assay, 72 h; assay type: cell-based
Source text: as §3, §4

[7] = test system: MCF-7 (human breast carcinoma); experiment: Alamar blue cytotoxicity assay, 72 h; assay type: cell-based
Source text: as §3, §4

[8] = test system: HL-60 (human promyelocytic leukemia); experiment: Alamar blue cytotoxicity assay, 72 h; assay type: cell-based
Source text: as §3, §4

[9] = test system: cancer cells with different histological types; experiment: Cytotoxicity, summary over the panel of cancer cells; assay type: cell-based; conditions: read-out: IC50 values against cancer cells (summary)
Procedure: as §4

JNK/SAPK (pT183/pY185) = experiment: Phosflow analysis of phosphorylated MAPK; assay type: cell-based, human; conditions: HepG2, 10 μM
Procedure: Phosphorylated extracellular signal-regulated kinase (ERK), JNK/SAPK and p38 MAPK were quantified by flow cytometry as previously described ([26]). The cells were collected and resuspended in 0.5–1 mL of 4% formaldehyde and fixed for 10 min at 37°C. Then, the tubes were chilled on ice for 1 min. The cells were permeabilized by slowly adding ice-cold 100% methanol to the cooled cells while gently vortexing to a final concentration of 90% methanol and incubating for 30 min on ice. After washing with incubation buffer (0.5% bovine serum albumin in PBS), PE mouse anti-JNK/SAPK (pT183/pY185) (ID 562480), PE mouse anti-p38 MAPK (pT180/pY182) (ID 612565), PE mouse anti-ERK1/2 (pT202/pY204) (ID 612566) or PE mouse IgG1,κ isotype control (ID 555749) antibodies, all from BD Biosciences, were added and incubated for 1 h at room temperature. Finally, the cells were washed with PBS, and the cell fluorescence was measured by flow cytometry.
as §2

human topoisomerase IB = test system: human topoisomerase IB; design: method as in PMID 26795676; conditions: ref [18], [19]; cited from earlier work

SMILES | cell cycle distribution (HepG2 cells [1]; 2 μM) | internucleosomal DNA fragmentation (sub-G0/G1) (HepG2 cells [1]) | IC50 ([2]; Homo sapiens) | cell morphology (HepG2 cells [3]) | IC50 ([4]; Homo sapiens, SCC-4, 72 h, read-out: IC50 and 95% CI) | Selectivity index (SI = IC50 [noncancerous cells]/IC50 [cancer cells]) ([4]; MRC-5 vs SCC-4) | Selectivity index (SI = IC50 [noncancerous cells]/IC50 [cancer cells]) ([4]; PBMCs vs SCC-4) | Selectivity index (SI = IC50 [noncancerous cells]/IC50 [cancer cells]) ([5]; MRC-5 vs HCT116) | Selectivity index (SI = IC50 [noncancerous cells]/IC50 [cancer cells]) ([5]; PBMCs vs HCT116) | Selectivity index (SI = IC50 [noncancerous cells]/IC50 [cancer cells]) ([6]; MRC-5 vs HSC-3) | Selectivity index (SI = IC50 [noncancerous cells]/IC50 [cancer cells]) ([6]; PBMCs vs HSC-3) | Selectivity index (SI = IC50 [noncancerous cells]/IC50 [cancer cells]) ([7]; MRC-5 vs MCF-7) | Selectivity index (SI = IC50 [noncancerous cells]/IC50 [cancer cells]) ([7]; PBMCs vs MCF-7) | Selectivity index (SI = IC50 [noncancerous cells]/IC50 [cancer cells]) ([8]; MRC-5 vs HL-60) | Selectivity index (SI = IC50 [noncancerous cells]/IC50 [cancer cells]) ([8]; PBMCs vs HL-60) | IC50 [9] | phosphorylation of JNK/SAPK (JNK/SAPK (pT183/pY185)) | IC50 [2] | supercoiled DNA relaxation mediated by human topoisomerase IB (human topoisomerase IB) | IC50 ([7]; read-out: IC50 and 95% CI, MCF-7, 72 h)
COc1cccc2c1C(=O)c1c(O)c3c(c(O)c1C2=O)C[C@@](O)(C(=O)CO)C[C@@H]3O[C@H]1C[C@H](N)[C@H](O)[C@H](C)O1 [Doxorubicin, reference compound] | cell cycle arrest at the G2/M phase | DNA fragmentation | 10.3 µM | apoptosis-related morphological alterations | 4 µM | 0.1 | 0.6 | 1.3 | 8.3 | 0.8 | 5.0 | 1.0 | 6.3 | 2.0 | 12.5 | – | – | – | – | –
Cn1ccnc1[S-].F[P-](F)(F)(F)(F)F.[Ru+2].c1ccc(-c2ccccn2)nc1.c1ccc(P(CCCCP(c2ccccc2)c2ccccc2)c2ccccc2)cc1 [Complex 1, [Ru(mmi)(bipy)(dppb)]PF6] | – | – | – | – | – | – | – | – | – | – | – | – | – | – | – | < 10 µM | no significant increase | 6.5 µM | inhibit the supercoiled DNA relaxation | –
F[P-](F)(F)(F)(F)F.[Ru+2].[S-]C1=NCCS1.c1ccc(-c2ccccn2)nc1.c1ccc(P(CCCCP(c2ccccc2)c2ccccc2)c2ccccc2)cc1 [Complex 2, [Ru(tzdt)(bipy)(dppb)]PF6] | – | – | – | – | – | 0.4 | 0.7 | 0.6 | 1.0 | 0.7 | 1.2 | 0.2 | 0.4 | 1.5 | 2.4 | < 10 µM | – | 7.3 µM | inhibit the supercoiled DNA relaxation | 7.3 µM
